Measured values taken from the supplement of paper PMC10307832.

Experiments:
Test in all cases: relative viability (nuclei count vs DMSO), 5 days (fraction); higher = more cells survive
[1] = test system: NCI-H1734
Procedure, shortened: (§1)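 Relative viability is defined as nuclei in treated wells over nuclei in vehicle wells. Duplicate plates were run and medians reported. Lung cancer cell lines in 1536-well plates were dosed by pin tool one day after seeding, with one drug or with a fixed anchor-drug dose plus five library-drug doses (not always all listed) in √10 steps, and nuclei were counted after 5 days.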

[2] = test system: HOP-62
Procedure, shortened: as §1

[3] = test system: EMC-BAC-2
Procedure, shortened: as §1

[4] = test system: NCI-H2342
Procedure, shortened: as §1

[5] = test system: CAL-12T
Procedure, shortened: as §1

[6] = test system: NCI-H2023
Procedure, shortened: as §1

[7] = test system: NCI-H2009
Procedure, shortened: as §1

[8] = test system: NCI-H650
Procedure, shortened: as §1

[9] = test system: NCI-H1944
Procedure, shortened: as §1

[10] = test system: NCI-H1650
Procedure, shortened: as §1

[11] = test system: H3255
Procedure, shortened: as §1

[12] = test system: BEN
Procedure, shortened: as §1

[13] = test system: HCC-15
Procedure, shortened: as §1

[14] = test system: NCI-H441
Procedure, shortened: as §1

[15] = test system: 201T
Procedure, shortened: as §1

[16] = test system: NCI-H522
Procedure, shortened: as §1

[17] = test system: SW 900
Procedure, shortened: as §1

[18] = test system: NCI-H2405
Procedure, shortened: as §1

[19] = test system: ChaGo-K-1
Procedure, shortened: as §1

[20] = test system: NCI-H1395
Procedure, shortened: as §1

[21] = test system: LU99A
Procedure, shortened: as §1

[22] = test system: NCI-H2347
Procedure, shortened: as §1

[23] = test system: NCI-H358
Procedure, shortened: as §1

[24] = test system: SK-LU-1
Procedure, shortened: as §1

[25] = test system: NCI-H23
Procedure, shortened: as §1

## Nc1cccc2c1CN(C1CCC(=O)NC1=O)C2=O (stereo not given) [Lenalidomide] + O=C(c1cc(Cc2n[nH]c(=O)c3ccccc23)ccc1F)N1CCN(C(=O)C2CC2)CC1 [Olaparib] (partner 8 µM)
[1]; first compound 0.253 µM
  relative viability: 0.305
[1]; first compound 0.8 µM
  relative viability: 0.582
[1]; first compound 2.53 µM
  relative viability: 0.651
[1]; first compound 8 µM
  relative viability: 0.576
[2]; first compound 0.253 µM
  relative viability: 0.38
[2]; first compound 0.8 µM
  relative viability: 0.366
[2]; first compound 2.53 µM
  relative viability: 0.537
[2]; first compound 8 µM
  relative viability: 0.406
[3]; first compound 0.253 µM
  relative viability: 0.479
[3]; first compound 0.8 µM
  relative viability: 0.395
[3]; first compound 2.53 µM
  relative viability: 0.52
[3]; first compound 8 µM
  relative viability: 0.461
[4]; first compound 0.253 µM
  relative viability: 0.464
[4]; first compound 0.8 µM
  relative viability: 0.415
[4]; first compound 2.53 µM
  relative viability: 0.437
[4]; first compound 8 µM
  relative viability: 0.399
[5]; first compound 0.253 µM
  relative viability: 0.807
[5]; first compound 0.8 µM
  relative viability: 0.729
[5]; first compound 2.53 µM
  relative viability: 0.757
[5]; first compound 8 µM
  relative viability: 0.941
[6]; first compound 0.253 µM
  relative viability: 0.46
[6]; first compound 0.8 µM
  relative viability: 0.469
[6]; first compound 2.53 µM
  relative viability: 0.492
[6]; first compound 8 µM
  relative viability: 0.453
[7]; first compound 0.253 µM
  relative viability: 0.623
[7]; first compound 0.8 µM
  relative viability: 0.654
[7]; first compound 2.53 µM
  relative viability: 0.827
[7]; first compound 8 µM
  relative viability: 0.693
[8]; first compound 0.253 µM
  relative viability: 0.384
[8]; first compound 0.8 µM
  relative viability: 0.294
[8]; first compound 2.53 µM
  relative viability: 0.544
[8]; first compound 8 µM
  relative viability: 0.369
[9]; first compound 0.253 µM
  relative viability: 0.43
[9]; first compound 2.53 µM
  relative viability: 0.443
[9]; first compound 8 µM
  relative viability: 0.415
[10]; first compound 0.253 µM
  relative viability: 0.681
[10]; first compound 0.8 µM
  relative viability: 0.712
[10]; first compound 2.53 µM
  relative viability: 0.945
[10]; first compound 8 µM
  relative viability: 0.933
[11]; first compound 0.253 µM
  relative viability: 0.556
[11]; first compound 0.8 µM
  relative viability: 0.579
[11]; first compound 2.53 µM
  relative viability: 0.602
[11]; first compound 8 µM
  relative viability: 0.614
[12]; first compound 0.253 µM
  relative viability: 1.07
[12]; first compound 0.8 µM
  relative viability: 1.2
[12]; first compound 2.53 µM
  relative viability: 1.08
[12]; first compound 8 µM
  relative viability: 1.08
[13]; first compound 0.253 µM
  relative viability: 0.686
[13]; first compound 0.8 µM
  relative viability: 0.728
[13]; first compound 2.53 µM
  relative viability: 0.819
[13]; first compound 8 µM
  relative viability: 0.706
[14]; first compound 0.253 µM
  relative viability: 0.471
[14]; first compound 0.8 µM
  relative viability: 0.502
[14]; first compound 2.53 µM
  relative viability: 0.625
[14]; first compound 8 µM
  relative viability: 0.577
[15]; first compound 0.253 µM
  relative viability: 0.847
[15]; first compound 0.8 µM
  relative viability: 0.865
[15]; first compound 2.53 µM
  relative viability: 0.864
[15]; first compound 8 µM
  relative viability: 0.92
[16]; first compound 0.253 µM
  relative viability: 0.676
[16]; first compound 0.8 µM
  relative viability: 0.672
[16]; first compound 2.53 µM
  relative viability: 0.58
[16]; first compound 8 µM
  relative viability: 0.608
[17]; first compound 2.53 µM
  relative viability: 0.913
[17]; first compound 8 µM
  relative viability: 0.858
[18]; first compound 0.253 µM
  relative viability: 0.866
[18]; first compound 0.8 µM
  relative viability: 0.877
[18]; first compound 2.53 µM
  relative viability: 0.879
[18]; first compound 8 µM
  relative viability: 0.86
[19]; first compound 0.253 µM
  relative viability: 0.387
[19]; first compound 0.8 µM
  relative viability: 0.407
[19]; first compound 2.53 µM
  relative viability: 0.421
[19]; first compound 8 µM
  relative viability: 0.478
[20]; first compound 0.253 µM
  relative viability: 0.453
[20]; first compound 2.53 µM
  relative viability: 0.523
[20]; first compound 8 µM
  relative viability: 0.458
[21]; first compound 0.253 µM
  relative viability: 0.261
[21]; first compound 0.8 µM
  relative viability: 0.283
[21]; first compound 2.53 µM
  relative viability: 0.243
[21]; first compound 8 µM
  relative viability: 0.246
[22]; first compound 0.253 µM
  relative viability: 0.62
[22]; first compound 0.8 µM
  relative viability: 0.567
[22]; first compound 2.53 µM
  relative viability: 0.579
[22]; first compound 8 µM
  relative viability: 0.509
[23]; first compound 0.8 µM
  relative viability: 0.607
[23]; first compound 2.53 µM
  relative viability: 0.652
[23]; first compound 8 µM
  relative viability: 0.665
[24]; first compound 0.253 µM
  relative viability: 0.409
[24]; first compound 0.8 µM
  relative viability: 0.542
[24]; first compound 2.53 µM
  relative viability: 0.615
[24]; first compound 8 µM
  relative viability: 0.392
[25]; first compound 0.253 µM
  relative viability: 0.289
[25]; first compound 2.53 µM
  relative viability: 0.3
[25]; first compound 8 µM
  relative viability: 0.367

## Nc1cccc2c1CN(C1CCC(=O)NC1=O)C2=O (stereo not given) [Lenalidomide] + CCNC(=O)c1noc(-c2cc(C(C)C)c(O)cc2O)c1-c1ccc(CN2CCOCC2)cc1 [Luminespib] (partner 0.01 µM)
[1]; first compound 0.253 µM
  relative viability: 0.157
[1]; first compound 0.8 µM
  relative viability: 0.202
[1]; first compound 2.53 µM
  relative viability: 0.206
[1]; first compound 8 µM
  relative viability: 0.196
[2]; first compound 0.253 µM
  relative viability: 0.961
[2]; first compound 0.8 µM
  relative viability: 0.843
[2]; first compound 2.53 µM
  relative viability: 0.899
[2]; first compound 8 µM
  relative viability: 0.938
[3]; first compound 0.253 µM
  relative viability: 1.22
[3]; first compound 0.8 µM
  relative viability: 1.1
[3]; first compound 2.53 µM
  relative viability: 1.23
[3]; first compound 8 µM
  relative viability: 1.11
[4]; first compound 0.253 µM
  relative viability: 0.706
[4]; first compound 0.8 µM
  relative viability: 0.744
[4]; first compound 2.53 µM
  relative viability: 0.806
[4]; first compound 8 µM
  relative viability: 0.56
[5]; first compound 0.253 µM
  relative viability: 0.341
[5]; first compound 0.8 µM
  relative viability: 0.245
[5]; first compound 2.53 µM
  relative viability: 0.259
[5]; first compound 8 µM
  relative viability: 0.479
[6]; first compound 0.253 µM
  relative viability: 0.869
[6]; first compound 0.8 µM
  relative viability: 0.915
[6]; first compound 2.53 µM
  relative viability: 0.685
[6]; first compound 8 µM
  relative viability: 0.824
[7]; first compound 0.253 µM
  relative viability: 1.04
[7]; first compound 0.8 µM
  relative viability: 0.99
[7]; first compound 2.53 µM
  relative viability: 1.09
[7]; first compound 8 µM
  relative viability: 1.11
[8]; first compound 0.253 µM
  relative viability: 0.905
[8]; first compound 2.53 µM
  relative viability: 0.831
[8]; first compound 8 µM
  relative viability: 0.823
[9]; first compound 0.253 µM
  relative viability: 0.675
[9]; first compound 0.8 µM
  relative viability: 0.777
[9]; first compound 2.53 µM
  relative viability: 0.871
[9]; first compound 8 µM
  relative viability: 0.502
[10]; first compound 0.8 µM
  relative viability: 0.197
[10]; first compound 2.53 µM
  relative viability: 0.196
[10]; first compound 8 µM
  relative viability: 0.202
[11]; first compound 0.253 µM
  relative viability: 0.732
[11]; first compound 0.8 µM
  relative viability: 0.753
[11]; first compound 2.53 µM
  relative viability: 0.915
[11]; first compound 8 µM
  relative viability: 0.876
[12]; first compound 0.253 µM
  relative viability: 0.427
[12]; first compound 0.8 µM
  relative viability: 0.233
[12]; first compound 2.53 µM
  relative viability: 0.607
[12]; first compound 8 µM
  relative viability: 0.246
[13]; first compound 0.253 µM
  relative viability: 0.485
[13]; first compound 0.8 µM
  relative viability: 0.303
[13]; first compound 2.53 µM
  relative viability: 0.359
[13]; first compound 8 µM
  relative viability: 0.363
[14]; first compound 0.253 µM
  relative viability: 0.293
[14]; first compound 0.8 µM
  relative viability: 0.388
[14]; first compound 2.53 µM
  relative viability: 0.307
[14]; first compound 8 µM
  relative viability: 0.285
[15]; first compound 0.253 µM
  relative viability: 1.05
[15]; first compound 2.53 µM
  relative viability: 1.03
[15]; first compound 8 µM
  relative viability: 1.09
[16]; first compound 0.253 µM
  relative viability: 1.32
[16]; first compound 0.8 µM
  relative viability: 1.79
[16]; first compound 2.53 µM
  relative viability: 1.28
[16]; first compound 8 µM
  relative viability: 1.17
[17]; first compound 0.253 µM
  relative viability: 0.195
[17]; first compound 2.53 µM
  relative viability: 0.189
[17]; first compound 8 µM
  relative viability: 0.183
[18]; first compound 0.253 µM
  relative viability: 0.665
[18]; first compound 0.8 µM
  relative viability: 0.76
[18]; first compound 2.53 µM
  relative viability: 0.757
[18]; first compound 8 µM
  relative viability: 0.644
[19]; first compound 0.253 µM
  relative viability: 0.649
[19]; first compound 0.8 µM
  relative viability: 0.506
[19]; first compound 2.53 µM
  relative viability: 0.788
[19]; first compound 8 µM
  relative viability: 0.541
[20]; first compound 0.253 µM
  relative viability: 0.796
[20]; first compound 0.8 µM
  relative viability: 0.72
[20]; first compound 2.53 µM
  relative viability: 0.855
[20]; first compound 8 µM
  relative viability: 0.615
[21]; first compound 0.253 µM
  relative viability: 0.236
[21]; first compound 0.8 µM
  relative viability: 0.249
[21]; first compound 2.53 µM
  relative viability: 0.258
[21]; first compound 8 µM
  relative viability: 0.258
[22]; first compound 0.253 µM
  relative viability: 0.507
[22]; first compound 0.8 µM
  relative viability: 0.627
[22]; first compound 2.53 µM
  relative viability: 0.454
[22]; first compound 8 µM
  relative viability: 0.249
[23]; first compound 0.253 µM
  relative viability: 0.419
[23]; first compound 0.8 µM
  relative viability: 0.377
[23]; first compound 2.53 µM
  relative viability: 0.437
[23]; first compound 8 µM
  relative viability: 0.576
[24]; first compound 0.253 µM
  relative viability: 0.177
[24]; first compound 0.8 µM
  relative viability: 0.218
[24]; first compound 2.53 µM
  relative viability: 0.198
[24]; first compound 8 µM
  relative viability: 0.226
[25]; first compound 0.253 µM
  relative viability: 0.218
[25]; first compound 0.8 µM
  relative viability: 0.173
[25]; first compound 2.53 µM
  relative viability: 0.196
[25]; first compound 8 µM
  relative viability: 0.228
